# Laboratory results published in PMC4537067 (ACS infectious diseases, 2015).
# Structures can show the parent of a compound that is named as a salt. Where two headings read alike, the source gives them in different places.
# Tests used:
# EBOV minigenome activity [1] = assay: microbe, parasite or virus in culture; type: cell-based, Ebola virus
# EBOV minigenome activity [2] = tested on: EBOV minigenome activity
# EBOV minigenome activity [3] = assay: cells; settings: Zaire ebolavirus, HEK-293T, 24 h
# in vitro = settings: human
# EBOV-GFP = type: cell-based, Ebola virus
# EBOV minigenome activity [4] = type: cell-based, Ebola virus
Structure (SMILES),% inhibition in screen (EBOV minigenome activity [1]) [%],SI (CC50/IC50) (EBOV minigenome activity [2]),IC50 (EBOV minigenome activity [3]) [µM],CC50 (in vitro) [µM],further results
O=c1cnn([C@@H]2O[C@H](CO)[C@@H](O)[C@H]2O)c(=O)[nH]1 [6-Azauridine],–,–,–,–,"inhibition at 7 µM (EBOV minigenome activity [1]; Zaire ebolavirus, 24 h, read-out: inhibition of minigenome activity (positive control)): ~70%"
CC(=O)Oc1c2c(c(CC=C(C)C)c3c1C(=O)C1=C[C@@H]4CC5C(C)(C)OC(C/C=C(\C)C(=O)O)(C4=O)[C@@]15O3)OC(C)(CCC=C(C)C)C=C2 (stereo partly drawn) [acetyl isogambogic acid],99.0,0.983,2.94,2.89,–
Nc1ncn([C@@H]2O[C@H](CO)[C@@H](O)[C@H]2O)c(=O)n1 [azacitidine],76.9,>12.466,4.01,> 50,–
C[C@@]12C(=O)OC(=O)[C@]1(C)[C@H]1CC[C@@H]2O1 [cantharidin],87.3,>4.415,11.3,> 50,IC50 (EBOV minigenome activity [2]): 11.3 µM
CO[C@H]1C=C[C@@]23c4cc5c(cc4CN(C[C@@H]2O)[C@H]3C1)OCO5 [crinamine],91.5,>13.196,–,–,IC50 (EBOV minigenome activity [2]): 3.79 µM; CC50 (HEK293T cells): > 50 µM
C[C@@H]1C[C@@H]([C@H](O)CC2CC(=O)NC(=O)C2)C(=O)[C@@H](C)C1 [cycloheximide],97.9,–,0.608,> 50,reduction of EBOV replication (EBOV-GFP) (EBOV-GFP): 96%; cytotoxicity (Vero E6 cells): cytotoxic at higher concentrations
C[C@H]1O[C@@H](O[C@H]2[C@@H](O)C[C@H](O[C@H]3[C@@H](O)C[C@H](O[C@H]4CC[C@@]5(C)[C@H](CC[C@@H]6[C@@H]5CC[C@]5(C)[C@@H](C7=CC(=O)OC7)CC[C@]65O)C4)O[C@@H]3C)O[C@@H]2C)C[C@H](O)[C@@H]1O [digitoxin],92.5,0.62,0.05,0.031,–
CN(C)CCOC(c1ccccc1)c1ccccc1.Cn1c(=O)c2[nH]c(Cl)nc2n(C)c1=O [dramamine],57.8,–,–,–,IC50 (EBOV minigenome activity [2]): > 50 µM; CC50 (HEK293T cells): > 50 µM
CC[C@H]1CN2CCc3cc(OC)c(OC)cc3[C@@H]2C[C@@H]1C[C@H]1NCCc2cc(OC)c(OC)cc21 [emetine],98.3,–,1.47,> 50,reduction of EBOV replication (EBOV-GFP) (EBOV-GFP): 99%; cytotoxicity (Vero E6 cells): cytotoxic at higher concentrations
O=c1[nH]cc(F)c(=O)[nH]1 [fluorouracil],–,–,> 50,> 50,–
CC(C)=CCC[C@]1(C)C=Cc2c(O)c3c(c(CC=C(C)C)c2O1)O[C@]12C(=C[C@@H]4CC1C(C)(C)O[C@@]2(C/C=C(/C)C(N)=O)C4=O)C3=O [gambogic amide],100.0,0.45,1.01,0.454,–
CC(=O)O[C@@H]1C[C@H]2C(C)(C)C(=O)C=C[C@]2(C)[C@H]2CC[C@@]3(C)[C@H](c4ccoc4)OC(=O)[C@H]4O[C@]43[C@@]21C [gedunin],72.9,6.829,0.803,5.48,reduction of virus replication (EBOV-GFP) (EBOV-GFP): 98%; cell death (cytotoxicity) (Vero E6 cells): little cell death
Cc1ccc(C)c(OCCCC(C)(C)C(=O)O)c1 [gemfobrozil],62.1,–,–,–,IC50 (EBOV minigenome activity [2]): > 50 µM; CC50 (HEK293T cells): > 50 µM
CC(=O)O[C@H]1C[C@H](O[C@H]2[C@@H](O)C[C@H](O[C@H]3[C@@H](O)C[C@H](O[C@H]4CC[C@@]5(C)[C@H](CC[C@@H]6[C@@H]5C[C@@H](O)[C@]5(C)[C@@H](C7=CC(=O)OC7)CC[C@]65O)C4)O[C@@H]3C)O[C@@H]2C)O[C@H](C)[C@H]1O[C@@H]1O[C@H](CO)[C@@H](O)[C@H](O)[C@H]1O [lanatoside C],100.0,0.694,0.255,0.177,–
CN(Cc1cnc2nc(N)nc(N)c2n1)c1ccc(C(=O)N[C@@H](CCC(=O)O)C(=O)O)cc1 [methotrexate],67.1,–,> 50,> 50,–
COc1c(C)c2c(c(O)c1C/C=C(\C)CCC(=O)O)C(=O)OC2 [mycophenolic acid],90.5,–,0.316,> 50,reduction of virus replication (EBOV-GFP) (EBOV-GFP): 96%; effect of guanosine addition on inhibition of minigenome activity (EBOV minigenome activity [4]): rescued minigenome activity at all concentrations; cell death (cytotoxicity) (Vero E6 cells): little cell death
CC1=CC(=O)c2c(O)cccc2C1=O [plumbagin],98.3,0.823,0.919,0.756,–
COc1ccc(C[C@H](N)C(=O)N[C@H]2[C@@H](O)[C@H](n3cnc4c(N(C)C)ncnc43)O[C@@H]2CO)cc1 [puromycin hydrochloride],99.7,4.043,0.889,3.59,–
C[C@]12CC[C@H]3[C@@H](CC[C@]4(O)C[C@@H](O)CC[C@]34C=O)[C@@]1(O)CC[C@@H]2C1=CC(=O)OC1 [strophanthidin],100.0,0.423,1.16,0.491,–
Nc1ncnc2c1ncn2[C@@H]1O[C@H](CO)[C@@H](O)[C@@H]1O [vidarabine],56.1,–,> 50,> 50,–
